Common to all, as to format: functional
The target in assay [1] is 5'-AMP-activated protein kinase catalytic subunit alpha-1 (Homo sapiens, UniProt Q13131).
For assay [2], the target named is Tyrosine-protein kinase Lyn (Homo sapiens, UniProt P07948).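 Further: lyn as one member of a kinase panel.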
In assay [3] the target is MAP/microtubule affinity-regulating kinase 3 (Homo sapiens, UniProt P27448).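 Further: MARK3 affinity measured as one member of a kinome panel.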
Assay [4] addresses Glycogen synthase kinase-3 beta (Homo sapiens, UniProt P49841).
Assay [5] has as its target Serine/threonine-protein kinase PAK 4 (Homo sapiens, UniProt O96013).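 Further: value obtained within a kinome profiling panel in which PAK4 was one of the panel members.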
In assay [6] the target is Fibroblast growth factor receptor 3 (Homo sapiens, UniProt P22607).
Assay [7] addresses Protein kinase C gamma type (Homo sapiens, UniProt P05129).
The target in assay [8] is Serine/threonine-protein kinase MRCK alpha (Homo sapiens, UniProt Q5VT25).
Assay [9] concerns the target MAP kinase-activated protein kinase 2 (Homo sapiens, UniProt P49137).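 Further: measured as one member of a kinome-wide kinase panel.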
The target of assay [10] is Tyrosine-protein kinase Blk (Homo sapiens, UniProt P51451).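 Further: obtained as one member of a kinome-wide kinase assay panel.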
The target of assay [11] is Serine/threonine-protein kinase Chk2 (Homo sapiens, UniProt O96017).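 Further: CHEK2 entry within a kinome-wide screening panel.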
The target of assay [12] is Serine/threonine-protein kinase PLK1 (Homo sapiens, UniProt P53350).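 Further: PLK1 measured as one member of a kinome-wide profiling panel.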
Assay [13] deals with Protein kinase C delta type (Homo sapiens, UniProt Q05655).
Assay [14] has as its target Fibroblast growth factor receptor 1 (Homo sapiens, UniProt P11362).
In assay [15] the target is Receptor tyrosine-protein kinase erbB-4 (Homo sapiens, UniProt Q15303).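 Further: ERBB4 member of a kinome-wide kinase profiling panel.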
The target in assay [16] is Serine/threonine-protein kinase pim-1 (Homo sapiens, UniProt P11309).
The target of assay [17] is RAC-alpha serine/threonine-protein kinase (Homo sapiens, UniProt P31749).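 Further: AKT1 affinity measured as one member of a kinome-wide kinase profiling panel.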
Assay [18] deals with Serine/threonine-protein kinase PLK3 (Homo sapiens, UniProt Q9H4B4).
Assay [19] concerns the target Ribosomal protein S6 kinase beta-1 (Homo sapiens, UniProt P23443).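 Further: measured as one member of a kinome-wide profiling panel.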
For assay [20], the target named is Cyclin-dependent kinase 1 (Homo sapiens, UniProt P06493).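 Further: Kinome-wide panel profiling, with the target listed as panel member CDC2.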
The target of the next assay is Ephrin type-A receptor 2 (Homo sapiens, UniProt P29317).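 Further: EPHA2 tested as one member of a kinome-wide kinase panel.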
Assay [21] concerns the target Inhibitor of nuclear factor kappa-B kinase subunit beta (Homo sapiens, UniProt O14920).
The target of the next assay is Aurora kinase A (Homo sapiens, UniProt O14965).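 Further: value from the Navigating the Kinome kinase panel profiling, panel entry STK6.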
Assay [22] concerns the target Casein kinase II subunit alpha (Homo sapiens, UniProt P68400).
Assay [23] concerns the target RAC-gamma serine/threonine-protein kinase (Homo sapiens, UniProt Q9Y243).
For assay [24], the target named is 3-phosphoinositide-dependent protein kinase 1 (Homo sapiens, UniProt O15530).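 Further: value comes from the Navigating the Kinome panel, PDPK1 member.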
Assay [25] concerns the target Serine/threonine-protein kinase Chk1 (Homo sapiens, UniProt O14757).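 Further: measured as one member of a kinome-wide kinase profiling panel.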
Assay [26] concerns the target cAMP-dependent protein kinase catalytic subunit alpha (Homo sapiens, UniProt P17612).
The target of assay [27] is Mast/stem cell growth factor receptor Kit (Homo sapiens, UniProt P10721).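 Further: KIT entry within a kinase panel assay.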
Assay [28] deals with T1, Neuropeptides B/W receptor type 1 (Homo sapiens, UniProt P48145).
T1 sequence (P48145 whole entry): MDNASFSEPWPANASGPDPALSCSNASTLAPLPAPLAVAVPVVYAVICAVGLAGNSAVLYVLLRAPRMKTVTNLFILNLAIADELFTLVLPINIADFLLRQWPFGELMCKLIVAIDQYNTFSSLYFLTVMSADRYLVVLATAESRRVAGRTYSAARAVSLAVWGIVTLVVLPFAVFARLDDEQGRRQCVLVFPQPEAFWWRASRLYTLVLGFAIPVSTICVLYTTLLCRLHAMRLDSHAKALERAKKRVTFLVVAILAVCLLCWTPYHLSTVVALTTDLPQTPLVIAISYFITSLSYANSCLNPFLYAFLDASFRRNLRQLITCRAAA
The assay can be described thus: GPR7 antagonist potency, late-stage follow-up, cell-based, fluorescence, dose response, set 5 (AID 588566).

In assay [29] the target is T2, Melanin-concentrating hormone receptor 1 (Homo sapiens, UniProt Q99705). Put plainly: Late-stage fluorescence-based counterscreen for antagonists of the G-protein coupled receptor 7 (GPR7): cell-based dose response assay to identify antagonists of the melanin-concentrating hormone receptor 1 (MCHR1) Set 5.
In assay [30] the target is T3, DNA dC->dU-editing enzyme APOBEC-3A (Homo sapiens, UniProt P31941). Put plainly: SAR analysis of small molecule inhibitors of APOBEC3A DNA Deaminase via a fluorescence-based single-stranded DNA deaminase assay. Conditions: read-out: IC50_Mean.
Assay [31] deals with T3, DNA dC->dU-editing enzyme APOBEC-3A. Put plainly: SAR analysis of small molecule inhibitors of APOBEC3A DNA Deaminase via a fluorescence-based single-stranded DNA deaminase assay - Set 2. To be noted: read-out: IC50_Mean.
The target of assay [32] is T4, DNA dC->dU-editing enzyme APOBEC-3G (Homo sapiens, UniProt Q9HC16). The assay can be described thus: APOBEC3G deaminase inhibitors, SAR follow-up, biochemical, fluorescence, single-stranded DNA substrate (AID 602136). Conditions: read-out: IC50_Mean.
The target of assay [33] is T4, DNA dC->dU-editing enzyme APOBEC-3G. Put plainly: SAR analysis of small molecule inhibitors of APOBEC3G DNA Deaminase via a fluorescence-based single-stranded DNA deaminase assay - Set 2. To be noted: read-out: IC50_Mean.
The target in assay [34] is T1, Neuropeptides B/W receptor type 1. The assay can be described thus: GPR7 antagonist potency, late-stage follow-up, cell-based, fluorescence, dose response, set 6 (AID 588583).
Assay [35] addresses T2, Melanin-concentrating hormone receptor 1. The assay can be described thus: Late-stage fluorescence-based counterscreen for antagonists of the G-protein coupled receptor 7 (GPR7): cell-based dose response assay to identify antagonists of the melanin-concentrating hormone receptor 1 (MCHR1) Set 6.
The target of assay [36] is Multidrug resistance protein CDR2 (Candida albicans (strain SC5314 / ATCC MYA-2876) (Yeast), UniProt P78595). The assay can be described thus: CaCDR2 efflux pump inhibitors in yeast, dose response, S. cerevisiae AD1-8u, singleplex, Cherry Pick1 hits (AID 588604).
The target in assay [37] is Mitogen-activated protein kinase 8 (Homo sapiens, UniProt P45983).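 Further: value comes from one member of a kinome-wide kinase profiling panel.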
Assay [38] deals with Serine/threonine-protein kinase D3 (Homo sapiens, UniProt O94806).
The target of the next assay is LIM domain kinase 1 (Homo sapiens, UniProt P53667). The assay can be described thus: Navigating the Kinome. Panel member name: LIMK1.
Assay [39] concerns the target Protein kinase C zeta type (Homo sapiens, UniProt Q05513).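 Further: measured as one member of a broad kinase profiling panel.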
The target in assay [40] is Cyclin-dependent kinase 2 (Homo sapiens, UniProt P24941).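 Further: CDK2 measured as one member of a broad kinome profiling panel.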
Assay [41] concerns the target Ribosomal protein S6 kinase alpha-3 (Homo sapiens, UniProt P51812).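 Further: measured within a kinome-wide profiling panel.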

The structures appear in SMILES notation. Active and inactive are the calls of the source.

Serine/threonine-protein kinase pim-1, sequence (P11309 whole entry): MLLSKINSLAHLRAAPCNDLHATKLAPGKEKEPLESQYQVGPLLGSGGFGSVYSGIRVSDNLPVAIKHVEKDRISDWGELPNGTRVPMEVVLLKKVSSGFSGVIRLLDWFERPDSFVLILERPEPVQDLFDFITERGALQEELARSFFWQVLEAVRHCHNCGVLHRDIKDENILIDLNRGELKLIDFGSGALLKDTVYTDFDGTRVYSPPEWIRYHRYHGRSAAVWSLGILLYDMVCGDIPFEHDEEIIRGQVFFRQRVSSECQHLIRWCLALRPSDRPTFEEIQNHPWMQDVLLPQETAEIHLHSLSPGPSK
Serine/threonine-protein kinase PAK 4, sequence (O96013 whole entry): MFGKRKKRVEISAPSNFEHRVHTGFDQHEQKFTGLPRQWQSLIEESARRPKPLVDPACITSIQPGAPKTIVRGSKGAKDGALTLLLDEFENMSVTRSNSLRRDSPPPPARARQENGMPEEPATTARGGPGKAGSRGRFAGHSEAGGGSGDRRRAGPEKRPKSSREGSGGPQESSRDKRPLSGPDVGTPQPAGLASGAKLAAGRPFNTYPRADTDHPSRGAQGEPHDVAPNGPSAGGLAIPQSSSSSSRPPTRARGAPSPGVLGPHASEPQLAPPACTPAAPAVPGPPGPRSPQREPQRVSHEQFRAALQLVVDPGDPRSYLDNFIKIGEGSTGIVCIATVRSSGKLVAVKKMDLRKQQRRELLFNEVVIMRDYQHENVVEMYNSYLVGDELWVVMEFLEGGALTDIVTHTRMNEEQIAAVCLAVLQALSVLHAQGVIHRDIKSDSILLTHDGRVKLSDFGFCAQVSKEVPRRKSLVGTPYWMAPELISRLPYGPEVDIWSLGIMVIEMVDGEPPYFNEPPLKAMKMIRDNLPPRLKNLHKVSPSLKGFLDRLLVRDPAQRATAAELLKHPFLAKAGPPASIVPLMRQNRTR
T4 sequence (Q9HC16 whole entry): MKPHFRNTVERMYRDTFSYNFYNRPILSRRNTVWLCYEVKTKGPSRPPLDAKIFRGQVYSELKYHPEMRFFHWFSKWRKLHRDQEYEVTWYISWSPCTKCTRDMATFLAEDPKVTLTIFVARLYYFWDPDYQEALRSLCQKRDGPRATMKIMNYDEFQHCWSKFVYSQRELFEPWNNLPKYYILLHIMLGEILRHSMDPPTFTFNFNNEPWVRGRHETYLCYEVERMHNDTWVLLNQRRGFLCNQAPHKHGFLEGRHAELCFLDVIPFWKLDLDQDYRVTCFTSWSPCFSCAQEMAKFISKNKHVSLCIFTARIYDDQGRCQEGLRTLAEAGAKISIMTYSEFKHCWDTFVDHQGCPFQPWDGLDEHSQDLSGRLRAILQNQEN
Serine/threonine-protein kinase MRCK alpha, sequence (Q5VT25 whole entry): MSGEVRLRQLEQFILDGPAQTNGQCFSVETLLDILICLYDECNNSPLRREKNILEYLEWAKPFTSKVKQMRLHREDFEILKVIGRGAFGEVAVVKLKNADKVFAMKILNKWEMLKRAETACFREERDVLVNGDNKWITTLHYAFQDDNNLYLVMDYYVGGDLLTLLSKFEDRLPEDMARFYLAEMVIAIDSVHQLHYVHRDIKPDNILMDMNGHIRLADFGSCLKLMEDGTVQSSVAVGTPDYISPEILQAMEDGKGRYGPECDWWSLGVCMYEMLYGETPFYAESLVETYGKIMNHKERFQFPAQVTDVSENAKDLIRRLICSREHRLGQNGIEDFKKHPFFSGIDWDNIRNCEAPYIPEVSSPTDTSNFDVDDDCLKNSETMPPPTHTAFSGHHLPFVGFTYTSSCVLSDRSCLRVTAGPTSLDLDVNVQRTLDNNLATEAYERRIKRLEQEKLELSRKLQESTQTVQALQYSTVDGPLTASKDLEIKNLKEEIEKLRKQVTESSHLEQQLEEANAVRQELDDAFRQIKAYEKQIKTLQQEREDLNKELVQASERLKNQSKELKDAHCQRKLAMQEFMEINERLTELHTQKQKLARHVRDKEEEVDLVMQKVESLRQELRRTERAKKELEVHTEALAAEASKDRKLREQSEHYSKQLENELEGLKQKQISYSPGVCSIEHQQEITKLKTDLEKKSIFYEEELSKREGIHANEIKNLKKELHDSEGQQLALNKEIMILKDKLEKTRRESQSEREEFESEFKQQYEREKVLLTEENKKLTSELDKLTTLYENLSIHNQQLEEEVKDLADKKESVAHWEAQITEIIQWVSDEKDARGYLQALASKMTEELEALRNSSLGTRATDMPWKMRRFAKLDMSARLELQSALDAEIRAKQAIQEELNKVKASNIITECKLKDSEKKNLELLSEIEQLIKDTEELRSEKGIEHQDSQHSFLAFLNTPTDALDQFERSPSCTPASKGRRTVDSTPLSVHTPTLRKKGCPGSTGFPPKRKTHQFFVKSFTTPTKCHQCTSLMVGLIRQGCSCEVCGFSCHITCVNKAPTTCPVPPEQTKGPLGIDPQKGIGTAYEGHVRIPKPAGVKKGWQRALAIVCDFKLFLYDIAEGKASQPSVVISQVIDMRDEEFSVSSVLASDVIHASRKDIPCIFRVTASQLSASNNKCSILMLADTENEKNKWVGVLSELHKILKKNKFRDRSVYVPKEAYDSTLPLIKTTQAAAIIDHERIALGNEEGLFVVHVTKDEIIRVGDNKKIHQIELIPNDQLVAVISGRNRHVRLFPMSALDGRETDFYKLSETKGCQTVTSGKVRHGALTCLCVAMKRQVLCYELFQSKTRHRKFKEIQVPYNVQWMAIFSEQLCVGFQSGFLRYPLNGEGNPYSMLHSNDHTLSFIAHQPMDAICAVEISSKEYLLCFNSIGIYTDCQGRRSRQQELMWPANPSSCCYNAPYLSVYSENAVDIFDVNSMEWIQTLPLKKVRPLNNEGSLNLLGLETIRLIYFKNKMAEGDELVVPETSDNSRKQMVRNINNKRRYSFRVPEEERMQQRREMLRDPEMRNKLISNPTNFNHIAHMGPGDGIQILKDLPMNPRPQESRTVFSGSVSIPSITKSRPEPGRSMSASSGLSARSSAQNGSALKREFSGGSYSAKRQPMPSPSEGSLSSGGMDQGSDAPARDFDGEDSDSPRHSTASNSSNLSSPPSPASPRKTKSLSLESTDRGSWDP
T2 sequence (Q99705 whole entry): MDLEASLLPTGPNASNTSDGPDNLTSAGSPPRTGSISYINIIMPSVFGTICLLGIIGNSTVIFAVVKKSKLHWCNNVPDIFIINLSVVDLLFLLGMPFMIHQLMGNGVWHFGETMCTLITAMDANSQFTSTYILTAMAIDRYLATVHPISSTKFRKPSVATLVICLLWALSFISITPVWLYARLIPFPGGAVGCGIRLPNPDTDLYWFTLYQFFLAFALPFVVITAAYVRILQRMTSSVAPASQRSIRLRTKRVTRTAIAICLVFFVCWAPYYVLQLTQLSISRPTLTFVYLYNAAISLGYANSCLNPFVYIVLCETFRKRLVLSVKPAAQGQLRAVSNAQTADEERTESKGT
Serine/threonine-protein kinase PLK3, sequence (Q9H4B4 whole entry): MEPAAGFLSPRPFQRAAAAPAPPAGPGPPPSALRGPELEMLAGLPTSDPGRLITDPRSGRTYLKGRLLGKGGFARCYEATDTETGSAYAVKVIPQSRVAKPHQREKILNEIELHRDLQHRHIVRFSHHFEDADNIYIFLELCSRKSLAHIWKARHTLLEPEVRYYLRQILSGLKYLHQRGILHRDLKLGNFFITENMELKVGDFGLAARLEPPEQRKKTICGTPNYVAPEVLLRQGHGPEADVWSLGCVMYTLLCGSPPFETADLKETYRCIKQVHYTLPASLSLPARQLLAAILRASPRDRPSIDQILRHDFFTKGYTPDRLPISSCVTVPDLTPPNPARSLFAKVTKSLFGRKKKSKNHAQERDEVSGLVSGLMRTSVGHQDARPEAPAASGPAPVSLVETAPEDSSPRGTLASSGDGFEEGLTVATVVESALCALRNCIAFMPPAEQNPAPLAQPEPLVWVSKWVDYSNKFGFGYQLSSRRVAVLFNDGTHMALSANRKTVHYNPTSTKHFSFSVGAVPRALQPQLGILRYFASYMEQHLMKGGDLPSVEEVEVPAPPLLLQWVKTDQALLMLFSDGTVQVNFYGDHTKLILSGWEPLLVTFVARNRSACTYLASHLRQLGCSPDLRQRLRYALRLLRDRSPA
Serine/threonine-protein kinase Chk2, sequence (O96017 whole entry): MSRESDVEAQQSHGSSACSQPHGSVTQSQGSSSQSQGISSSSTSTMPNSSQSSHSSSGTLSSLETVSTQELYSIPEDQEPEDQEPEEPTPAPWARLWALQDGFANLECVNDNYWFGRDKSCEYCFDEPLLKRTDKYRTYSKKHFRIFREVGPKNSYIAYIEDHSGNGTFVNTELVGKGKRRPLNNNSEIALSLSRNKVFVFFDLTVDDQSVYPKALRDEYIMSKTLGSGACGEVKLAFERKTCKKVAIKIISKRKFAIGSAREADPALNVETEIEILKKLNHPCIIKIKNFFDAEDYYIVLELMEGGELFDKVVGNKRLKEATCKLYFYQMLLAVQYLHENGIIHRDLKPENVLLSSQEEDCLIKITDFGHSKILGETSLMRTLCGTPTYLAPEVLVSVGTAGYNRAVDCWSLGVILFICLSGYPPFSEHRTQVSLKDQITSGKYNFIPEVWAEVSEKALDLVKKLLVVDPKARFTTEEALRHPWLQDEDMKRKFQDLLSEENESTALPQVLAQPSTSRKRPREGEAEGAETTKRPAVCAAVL
RAC-alpha serine/threonine-protein kinase, sequence (P31749 whole entry): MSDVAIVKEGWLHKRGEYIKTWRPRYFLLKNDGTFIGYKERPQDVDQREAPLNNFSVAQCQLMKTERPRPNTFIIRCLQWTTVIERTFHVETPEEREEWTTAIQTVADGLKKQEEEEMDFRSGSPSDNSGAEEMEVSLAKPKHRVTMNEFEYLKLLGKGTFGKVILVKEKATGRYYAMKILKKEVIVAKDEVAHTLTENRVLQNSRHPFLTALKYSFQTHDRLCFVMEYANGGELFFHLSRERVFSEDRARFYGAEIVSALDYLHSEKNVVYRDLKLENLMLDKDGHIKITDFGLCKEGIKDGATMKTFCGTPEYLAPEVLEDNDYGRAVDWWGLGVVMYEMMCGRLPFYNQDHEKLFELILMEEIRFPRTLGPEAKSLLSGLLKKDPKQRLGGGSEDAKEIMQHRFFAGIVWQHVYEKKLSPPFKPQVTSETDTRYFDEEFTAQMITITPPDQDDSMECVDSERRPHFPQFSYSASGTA

In the case of `c1ccc(-c2n[nH]cc2-c2ccncc2)cc1`, the Ki (commonly a dissociation constant, usually derived from enzyme kinetics or from competition with a known ligand) in assay [1] is > 25.1 µM (inactive); in [2] it was 2 µM (active); in assay [3], 7.94 µM (active); in [4], 0.251 µM (active); in assay [5] it was > 12.6 µM (inactive); in [6], > 5.01 µM (inactive). In addition, the Ki in [7] is > 20 µM (inactive); in [8], 1.26 µM (active); in assay [9], > 20 µM (inactive); in assay [10], > 3.98 µM (inactive); in assay [11], > 25.1 µM (inactive); in assay [12], > 20 µM (inactive). In addition, the Ki in assay [13] is 2.51 µM (active); in assay [14] it was 10 µM (active); in [15], 1 µM (active); in assay [16], 20 µM (active); in [17] it was 7.94 µM (active); in assay [18], > 20 µM (inactive). For the same compound, the Ki in assay [19] was 2.51 µM (active); in [20] it was 10 µM (active); on Ephrin type-A receptor 2 it was > 20 µM (inactive); in assay [21] it was > 7.94 µM (inactive); at Aurora kinase A, 6.31 µM (active); in assay [22], > 15.8 µM (inactive). The Ki in [23] is 10 µM (active); in [24], > 10 µM (inactive); in assay [25], > 20 µM (inactive); in assay [26], 0.794 µM (active); in [27], > 3.16 µM (inactive).
Consider `COc1ccc(S(=O)(=O)c2c(Cl)cnn(Cc3cccc4ccccc34)c2=O)cc1`, for which the figures for the IC50 in assay [28] and in assay [29] were ~6.06 µM (active) and 4.44 µM (active), respectively.
Regarding `COc1cc(C=Nn2c(S)nnc2-c2[nH]nc3c2CCC3)ccc1O`, the IC50 in assay [30] was > 99 µM (inactive); in assay [31], > 99 µM (inactive); in assay [32], 0.808 µM (active); in assay [33], 0.732 µM (active).
As for `CCc1c(C(C#N)c2ccccc2)cnn(Cc2cccc3ccccc23)c1=O` (configuration not stated), the IC50 in [34] and in assay [35] was 4.72 µM (active) each time.
Turning to `O=[N+]([O-])c1cc(/C=N\Nc2ccccn2)ccc1Cl`, the EC50 (usually the concentration giving half of the maximal effect) in assay [36] is 9.33 µM (active).
As for `CC(=O)Nc1cc(N)c(C#N)c(OCC(C)C)n1`, the values for the Ki in assay [37] and in assay [38] were 1.58 µM (active) and 6.31 µM (active), respectively.
For the compound `COc1ccccc1NC(=O)c1cnn2c(-c3ccccc3)ccnc12`, the values for the Ki (on LIM domain kinase 1; in [16]) were 2.51 µM (active) and 5.01 µM (active), respectively.
Turning to `COc1ccc(OC)c(CNC(=O)c2cc(N)c(C#N)c(OC(C)C)n2)c1`, the Ki in assay [39] is > 7.94 µM (inactive); in assay [1] it was 7.94 µM (active); in assay [3], > 6.31 µM (inactive); in assay [4], 1.58 µM (active); in assay [40], > 7.94 µM (inactive); in assay [5], > 5.01 µM (inactive). The Ki in [7] is > 7.94 µM (inactive); in assay [8], > 10 µM (inactive); in assay [9], > 7.94 µM (inactive); in assay [11], > 10 µM (inactive); in assay [12], > 7.94 µM (inactive); in assay [13] it was > 7.94 µM (inactive). Also, the Ki is > 10 µM (inactive) in assay [16]; 6.31 µM (active) in [17]; 5.01 µM (active) in assay [41]; > 7.94 µM (inactive) in assay [18]; 0.501 µM (active) in assay [19]; > 7.94 µM (inactive) in assay [20]. In addition, the Ki was > 7.94 µM (inactive) on Ephrin type-A receptor 2; > 6.31 µM (inactive) on Aurora kinase A; > 6.31 µM (inactive) in [22]; > 10 µM (inactive) in [23]; > 7.94 µM (inactive) in [25]; > 7.94 µM (inactive) in assay [26]. Besides, in assay [27], the Ki was 1 µM (active).

Source of the values: ChEMBL document CHEMBL1201862, “PubChem BioAssay data set” (2004).
